{"source": "patent US6372727B1", "about": "“Metalloporphyrin treatment of neurologic disease” (UAB Research Foundation, priority 1999, dated 2002)", "key": {"[1]": {"assay": "MP-catalyzed peroxynitrite decomposition monitored at 302 nm", "assay_type": "biochemical", "conditions": "for Rate Constants for MP-Catalyzed Decomposition of Peroxynitrite (pH 7.4, 37° C.): 100 μM peroxynitrite, absence of added reductants", "experimental": "Peroxynitrite (100 μM) was added to rapidly stirred cuvettes at 37° C. containing the indicated concentrations of MPs in 0.1 M potassium phosphate, pH 7.4. Ascorbate was added to 150 μM where indicated. Peroxynitrite decomposition was monitored at 302 nm using a Hewlett-Packard diode-array spectrophotometer. Apparent rates (kapparents^−1, average of n=3) were plotted versus MP concentration to determine rate constants in M^−1s^−1.\nReactions contained the indicated concentration of FeTCPPin 1.4 ml of 0.1 M potassium phosphate, pH 7.4 in the absence or presence to 150 μM ascorbic acid. Peroxynitrite (100 μM) was added to rapidly stirred cuvettes at 37° C. and the decay of peroxynitrite was monitored continuously at 302 nm. Decay data were fitted to the equation describing first order decay to obtain apparent decay rates (kapparent sec^−1). Apparent decay rates as a function of FeTCPP were fitted by linear regression and the rate constant was obtained slope of the line.\nPeroxynitrite (100 μM) decomposition was determined at 302 nm using a Hewlett-Packard diode-array spectrophotometer fitted with a temperature-controlled cuvette chamber and a water-driven cuvette stirrer. Bolus additions of peroxynitrite were made to vigorously stirred cuvettes containing varying concentrations of MPs (see Table III) while data were collected at a rate of ten points/sec. […] Each reaction was repeated three times and only the first additions of peroxynitrite were averaged. Data were exported for fitting and plotting. Apparent rates of peroxynitrite decomposition were plotted as a function of metalloporphyrin concentration (as shown in FIG. 5) to determine concentration-independent rate constants at 37° C.\nRates of peroxynitrite (100 μM) decomposition were determined at different MP concentrations. Ascorbate was added to 150 μM where indicated. […] Apparent rate constants were plotted versus MP concentration (as in FIG. 5A,B) to determine true rate constants in M^−1s^−1±standard error."}, "[2]": {"assay": "Peroxynitrite-mediated nitration of GYA peptide", "assay_type": "biochemical", "conditions": "2 mM GYA; for effect on nitration: 10 μM MP, pH 7.4; for enhancement of nitration yield: 10 μM MP or SOD subunit, 1 mM CO2, pH 7.4, 37° C.", "experimental": "Nitration efficiency, defined as the moles of nitrated GYA peptide formed per mole of peroxynitrite added, was determined at a fixed concentration of 10 μM MP or Cu,Zn SOD subunit, or 1 mM CO2 as described below. Increasing amounts of peroxynitrite were added in a sequential manner in order to determine whether nitration efficiency varied with concentration and to determine whether nitration catalysis was maintained with multiple additions (see INSET). Nitration efficiency was calculated for each peroxynitrite addition; the values shown are the average of all nine peroxynitrite additions. Absorbance changes were monitored simultaneously at 380, 430, and 460 nm.\n(§1) For nitration of GYA peptide (see FIG. 6), reaction solutions contained 2 mM GYA and 10 μM of the indicated MP in 1.4 ml of 0.1 M potassium phosphate, pH 7.4 at 37° C. Comparisons with two previously characterized nitration catalysts, human Cu,Zn superoxide dismutase (hCu,Zn SOD) and carbon dioxide, were made using 10 μM of SOD subunit and 25 mM potassium bicarbonate, respectively, which was pH-adjusted to 7.4. This level of bicarbonate results in rapid saturation of the solution with carbon dioxide (˜1 mM). Solutions were placed into a rapidly stirred cuvette and nine bolus additions (50 μM×3, 100 μM×3, and 200 μM×3) of peroxynitrite were made sequentially while the absorbance was monitored. Increasing amounts of peroxynitrite were added in a sequential manner in order to determine whether nitration efficiency varied with concentration and to determine whether nitration catalysis was maintained with multiple additions (see FIG. 6 inset). Nitration efficiency was defined as the amount of nitropeptide formed per amount of peroxynitrite added and was calculated for each peroxynitrite addition; the values shown are the average of all nine peroxynitrite additions. The absorbance changes associated with nitrotyrosine peptide production were monitored simultaneously at 380, 430, and 460 nm. The extinction coefficients for nitrated GYA at pH 7.4 are 4,400 M^−1cm^−1 at 430 nm and 2,200 M^−1cm^−1 at both 380 and 460 nm. […] Wavelengths used to quantify nitrotyrosine production were chosen to minimize interference by the particular metalloporphyrin used. Experiments using HPA as a nitration target (FIG. 7) contained 8 mM HPA in either 0.1 M potassium phosphate, pH 7.4 or 0.1 M sodium borate, pH 9.1.\nThe relative abilities of several MPs to enhance nitration of the tripeptide GYA was compared using 10 μM MP and sequential bolus additions of 50 μM (×3), 100 μM (×3), and 200 μM (×3)peroxynitrite (FIG. 6, inset)."}, "cultured motor neurons": {"test_system": "cultured motor neurons", "assay": "Protection of cultured motor neurons from growth factor withdrawal", "assay_type": "cell-based", "conditions": "for level of protection compared with FeTCPP: 72 hr after trophic factor deprivation", "experimental": "Culture Motor neurons were prepared from embryonic day 15 (E15) rat spinal cords by a combination of metrizamide gradient centrifugation and immunopanning with the monoclonal antibody IgG192 (Chandler et al., J. Biol. Chem. 259:6882-6889, 1984) as previously described (Estevez et al., J Neurosci 18:923-931, 1998; Henderson C E, Bloch-Gallego E, Camu W (1995): Purification and culture of embryonic motorneurons. In Cohen J, Wilkin G (eds): Neural Cell Culture: A Practical Approach. Oxford, England: IRL Press, pp 69-81). Long-term cultures of motor neurons were performed as described by Pennica et al. (Pennica et al., Neuron 17:63-74, 1996). Briefly, motor neurons were plated at a density of 200 cells/cm2 on 35 mm dishes precoated with polyornithine-laminin in Neurobasal medium supplemented with B27 (Life Technologies, Grand Island, N.Y.), 2% horse serum, 0.5 mM L-glutamine, 25 μM 2-mercaptoethanol and 25 μM L-glutamate. Every 3-4 days ¾ of the culture medium was replaced by fresh medium lacking L-glutamate and containing sufficient quantities of BDNF or FeTCPP to supplement the 2 ml of medium in the dish. More than 94% of the cells were immunoreactive for the p75 low-affinity neurotrophic receptor (p75NTR) and Islet ½, which are markers for motor neurons. The experiments were repeated at least 2 times using the same lot of Neurobasal medium and B 27 supplement.\nThe number of motor neurons with neurites longer than 4 soma diameters present in parallel cultures treated with BDNF at a final concentration of 100 pg/ml 24 h after plating or culture media replacement was considered 100% motor neuron survival. FeTCPP was resuspended in complete Neurobasal medium at a 5 mM concentration. Dilutions were performed of the stock solution to add 20 μl per dish.\nRat motor neurons survive many days in culture when brain-derived neurotrophic factor (BDNF) is added to the culture media. Because motor neurons are the cells that preferentially die in ALS, primary cultures of motor neurons represent the best non-animal model of ALS. Withdrawal of BDNF results in apoptotic death of >70% of motor neurons within 24 h. Cell death was correlated with expression of the neuronal form of nitric oxide synthase (nNOS) and the production of peroxynitrite, as evidenced by protein tyrosine nitration. When FeTCPP is added to the culture media in place of BDNF and motor neuron survival is assessed at 24 h, some protection is seen at concentrations as low as 0.01 μM (FIG. 10A). […] Additionally, a comparison of the effect of FETCPP and its tetra-methyl ester derivative, TMeO-FeTCPP, on motor neuron survival at 72 hr."}, "[3]": {"test_system": "ALS-SOD1 (G93A) transgenic mice", "assay": "Survival of ALS-SOD1 (G93A) transgenic mice", "assay_type": "in vivo", "conditions": "G93A mutant of Cu,Zn superoxide dismutase transgene", "experimental": "FIG. 13A: Transgenic mice (n=9) were injected intraperitoneally with 3 mg/kg/day of a low molecular weight (844.6) synthetic iron porphyrin. […] Treatment was continued until such time that signs of diaphragm weakness (labored breathing) necessitated sacrifice. A control group of transgenic mice was treated with vehicle only (phosphate-buffered saline). FIG. 13B: Transgenic mice were injected intraperitoneally with 1 mg/kg/day of a low molecular weight (844.6) synthetic iron porphyrin. Treatment began at day 60 prior to the onset of symptoms. A control group of transgenic mice was treated with vehicle only (phosphate-buffered saline).\nMice transgenic for the G93A mutated form of SOD1 are generally accepted as the standard model of motor neuron disease. […] This compound extended the mean survival time by 13 days (from 127 to 140 days) (FIG. 13A).\nA group of G93A mice was treated with 1 mg/kg of FeTCPP intraperitoneally beginning at 60 days of age. As with the control group in FIG. 13A, none of the control group in this test survived past 132 days. However, the probability of survival at 140 days was about 37% and at approximately 180 days survival was still at 20%."}, "[4]": {"assay": "Ascorbate oxidation by MPs monitored at 266 nm", "assay_type": "biochemical", "conditions": "MP 10 μM, 50 μM ascorbate, 0.1 M potassium phosphate pH 7.4, ± standard error, n=3", "experimental": "In order to test the hypothesis that Mn(II)- or Fe(II)-porphyrins would be capable of carrying out two-electron reductions of peroxynitrite and thereby decreasing rather than increasing its reactivity, attempts were made to pre-reduce these transition metal-containing MPs prior to addition of peroxynitrite.\nTable V. Ascorbate oxidation by MPs. MPs (10 μM) were added to stirred cuvettes containing 0.1 M potassium phosphate, pH 7.4 and 50 μM ascorbate. Ascorbate oxidation was monitored at 266 nm (ηm=17,700 M^−1cm^−1). Oxidation rates (±standard errors) were determined by fitting the initial linear portion of each curve and averaging the rates (n=3)."}, "[5]": {"assay": "MP-catalyzed nitration of HPA: effect of pH, reductants and serum", "assay_type": "biochemical", "experimental": "Single additions of 100 μM peroxynitrite were made to reactions containing ascorbate or GSH. Three sequential additions of 100 μM peroxynitrite were made to all other reactions.\nas §1, with “This” for “For nitration of GYA peptide (see FIG. 6), reaction solutions contained 2 mM GYA and 10 μM of the indicated MP in 1.4 ml of 0.1 M potassium phosphate, pH 7.4 at 37° C. Comparisons with two previously characterized nitration catalysts, human Cu,Zn superoxide dismutase (hCu,Zn SOD) and carbon dioxide, were made using 10 μM of SOD subunit and 25 mM potassium bicarbonate, respectively, which was pH-adjusted to 7.4. This”"}}}
{"molecule": "O=C(O)c1ccc(-c2c3nc(c(-c4ccc(C(=O)O)cc4)c4ccc([n-]4)c(-c4ccc(C(=O)O)cc4)c4nc(c(-c5ccc(C(=O)O)cc5)c5ccc2[n-]5)C=C4)C=C3)cc1.[Zn+2]", "note": "[ZnTBAP, Zinc (II) tetra-(4-benzoic acid)-porphyrin]", "values": [{"measurement": "Rate Constants for MP-Catalyzed Decomposition of Peroxynitrite (pH 7.4, 37° C.)", "setting": "[1]", "result": "5.3 × 10^3 ± 0.3 M^−1s^−1"}, {"measurement": "effect on nitration", "setting": "[2]", "result": "small but reproducible inhibitory effect"}]}
{"molecule": "O=C1O[C@H]([C@@H](O)CO)C(O)=C1O", "note": "[ascorbate, ascorbic acid]", "values": [{"measurement": "acceleration of peroxynitrite decomposition", "setting": "[1]; ascorbate alone 150 μM, no MP", "result": 16, "unit": "%"}]}
{"molecule": "O=C=O", "note": "[carbon dioxide]", "values": [{"measurement": "enhancement of nitration yield", "setting": "[2]", "result": 1.7, "unit": "fold"}]}
{"molecule": "Copper (II) meso-tetra-(4-sulfonatophenyl)-porphyrin [CuTSPP]", "values": [{"measurement": "effect on nitration", "setting": "[2]", "result": "small but reproducible inhibitory effect"}]}
{"molecule": "Iron (III) meso 5,10,15,20-tetrakis-(4-carboxymethyl-phenyl) porphyrin [FeTMeO-TCPP]", "values": [{"measurement": "survival of cultured motor neurons deprived of growth factors", "setting": "cultured motor neurons", "result": "prolong survival of cultured motor neurons"}, {"measurement": "level of protection compared with FeTCPP", "setting": "cultured motor neurons; 0.01 μM", "result": "twice the level of protection"}, {"measurement": "level of protection compared with FeTCPP", "setting": "cultured motor neurons; 0.1 μM", "result": "slightly greater level of protection"}, {"measurement": "progression of motor neuron death in mice", "setting": "[3]", "result": "slow the progression of motor neuron death"}]}
{"molecule": "Iron (III) meso-tetra-(4-sulfonatophenyl)-porphyrin [FeTSPP]", "values": [{"measurement": "Rate Constants for MP-Catalyzed Decomposition of Peroxynitrite (pH 7.4, 37° C.)", "setting": "[1]", "result": "3.3 × 10^5 ± 0.4 M^−1s^−1"}, {"measurement": "enhancement of nitration yield", "setting": "[2]", "result": 5.3, "unit": "fold"}, {"measurement": "Rate of Ascorbate Oxidation", "setting": "[4]", "result": "4.58 ± 0.21", "unit": "µM/min"}, {"measurement": "enhancement of nitration yield at pH 9.1", "setting": "[5]; 8 mM HPA, 10 μM MP, 0.1 M sodium borate pH 9.1, versus non-catalyzed", "result": 2.8, "unit": "fold"}, {"measurement": "effect of ascorbate and GSH on nitration enhancement", "setting": "[5]; concentrations which eliminated non-catalyzed nitration", "result": "largely prevented the enhancement of nitration"}, {"measurement": "effect of serum on nitration enhancement", "setting": "[5]; fresh human serum 1:10 added prior to peroxynitrite", "result": "largely eliminated the nitration enhancement"}]}
{"molecule": "BDNF: brain-derived neurotrophic factor (protein, UniProt P23560 19-247, looked up) Neurotrophic factor BDNF …: APMKEANIRGQGGLAYPGVRTHGTLESVNGPKAGSRGLTSLADTFEHVIEELLDEDQKVRPNEENNKDADLYTSRVMLSSQVPLEPPLLFLLEEYKNYLDAANMSMRVRRHSDPARRGELSVCDSISEWVTAADKKTAVDMSGGTVTVLEKVPVSKGQLKQYFYETKCNPMGYTKEGCRGIDKRHWNSQCRTTQSYVRALTMDSKKRIGWRFIRIDTSCVCTLTIKRGR", "values": [{"measurement": "motor neurons that die between day 8 and day 16", "setting": "cultured motor neurons; long-term culture in the presence of BDNF", "result": 80, "unit": "%"}]}
